Type in all cases: biochemical
For experiment [1], the target named is wild-type Epidermal Growth Factor Receptor (EGFR) (Homo sapiens (Human), UniProt P00533). As to the kind of experiment: WT-EGFR Kinase Assay (TR-FRET, 2 mM ATP). (In general: In TR-FRET formats the signal depends on donor and acceptor labels being close together.)
The target in experiment [2] is T1, human CSNK1A1 (Homo sapiens (Human), UniProt P48729). As to the kind of experiment: CSNK1A1 Assay 2 (ADP-Glo, 1 μM ATP). The note with it: substrate biotin-Ahx-KRRRAL-pS-VASLPGL, read-out: CSNK1A1 Assay 2 IC50 [mol/l] (median). Here is the method: CSNK1A1-inhibitory activity of compounds of the present invention in presence of 1 μM adenosine-tri-phosphate (ATP) was quantified employing the CSNK1A1 assay as described in the following paragraphs. In essence, the enzyme activity is measured by quantification of the adenosine-di-phosphate (ADP), which is generated as a co-product of the enzyme reaction, via the “ADP-Glo™ Kinase Assay” kit from the company Promega. This detection system works as follows: In a first step the ATP not consumed in the kinase reaction is quantitatively converted to cAMP employing an adenylate cyclase (“ADP-Glo-reagent”), then the adenylate cyclase is stopped and the ADP generated in the kinase reaction converted to ATP which generates in a luciferase-based reaction a glow-luminescence signal (“Kinase Detection Reagent”). Recombinant fusion protein of N-terminal Glutathion-S-Transferase (GST) and full-length human CSNK1A1, expressed by baculovirus infected insect cells and purified via Glutathion affinity chromatography, was purchased from Life Technologies (product no. PV4174) and used as enzyme. As substrate for the kinase reaction the biotinylated peptide biotin-Ahx-KRRRAL-pS-VASLPGL (C-terminus in amide form) was used which can be purchased e.g. from the company Biosyntan (Berlin-Buch, Germany).
For the assay 50 nl of a 100 fold concentrated solution of the test compound in DMSO was pipetted into a white 1536-well microtiter plate (Greiner Bio-One, Frickenhausen, Germany), 2 μL of a solution of CSNK1A1 in aqueous assay buffer [50 mM HEPES pH 7.5, 10% (v/v) glycerol, 10 mM MgCl2, 50 mM NaCl, 1 mM dithiothreitol, 0.01% (w/v) bovine serum albumin, 0.01% (v/v) Triton X-100] were added and the mixture was incubated for 15 min at 22° C. to allow pre-binding of the test compounds to the enzyme before the start of the kinase reaction. […] The concentration of CSNK1A1 was adjusted depending of the activity of the enzyme lot and was chosen appropriate to have the assay in the linear range, a typical concentrations are about 0.0375 ng/μL. The reaction was stopped by the addition of 2.5 μL of “ADP-Glo-reagent” (1:1.5 fold diluted with water) and the resulting mixture was incubated at 22° C. for 1 h to convert the ATP not consumed in the kinase reaction completely […]. Subsequently 2.5 μL of the “kinase detection reagent” (1.2 fold more concentrated than recommended by the producer) were added, the resulting mixture was incubated at 22° C. for 1 h and then the luminescence measured with a suitable measurement instrument (e.g. Viewlux™ from Perkin-Elmer). The amount of emitted light was taken as a measure for the amount of ADP generated and thereby for the activity of the CSNK1A1.

Experiment [3] concerns the target T1, human CSNK1A1. Briefly: CSNK1A1 High ATP Assay (ADP-Glo, 1 mM ATP). Conditions: read-out: CSNK1A1 high ATP assay IC50 [mol/l] (median). The procedure:
CSNK1A1-inhibitory activity of compounds of the present invention in presence of 1 mM adenosine-tri-phosphate (ATP) was quantified employing the CSNK1A1-high-ATP-assay as described in the following paragraphs. In essence, the enzyme activity is measured by quantification of the adenosine-di-phosphate (ADP), which is generated as a co-product of the enzyme reaction, via the “ADP-Glo™ Kinase Assay” kit from the company Promega. This detection system works as follows: In a first step the ATP not consumed in the kinase reaction is quantitatively converted to cAMP employing an adenylate cyclase (“ADP-Glo-reagent”), then the adenylate cyclase is stopped and the ADP generated in the kinase reaction converted to ATP which generates in a luciferase-based reaction a glow-luminescence signal (“Kinase Detection Reagent”).
Recombinant fusion protein of N-terminal Glutathion-S-Transferase (GST) and full-length human CSNK1A1, expressed by baculovirus infected insect cells and purified via Glutathion affinity chromatography, was purchased from Life Technologies (product no. PV4174) and used as enzyme. As substrate for the kinase reaction the biotinylated peptide biotin-Ahx-KRRRAL-pS-VASLPGL (C-terminus in amide form) was used which can be purchased e.g. from the company Biosyntan (Berlin-Buch, Germany).
For the assay 50 nl of a 100 fold concentrated solution of the test compound in DMSO was pipetted into a white low volume 384-well microtiter plate (Greiner Bio-One, Frickenhausen, Germany), 2 μL of a solution of CSNK1A1 in aqueous assay buffer [50 mM HEPES pH 7.5, 10% (v/v) glycerol, 10 mM MgCl2, 50 mM NaCl, 1 mM dithiothreitol, 0.01% (w/v) bovine serum albumin, 0.01% (v/v) Triton X-100] were added and the mixture was incubated for 15 min at 22° C. to allow pre-binding of the test compounds to the enzyme before the start of the kinase reaction. […] The concentration of CSNK1A1 was adjusted depending of the activity of the enzyme lot and was chosen appropriate to have the assay in the linear range, a typical concentration is about 0.4 ng/μL. The reaction was stopped by the addition of 2.5 μL of “ADP-Glo-reagent” (1:1.5 fold diluted with water) and the resulting mixture was incubated at 22° C. for 1 h to convert the ATP not consumed in the kinase reaction completely […]. Subsequently 2.5 μL of the “kinase detection reagent” (1.2 fold more concentrated than recommended by the producer) were added, the resulting mixture was incubated at 22° C. for 1 h and then the luminescence measured with a suitable measurement instrument (e.g. Viewlux™ from Perkin-Elmer). The amount of emitted light was taken as a measure for the amount of ADP generated and thereby for the activity of the CSNK1A1.
Background: ADP-Glo turns the ADP formed in a reaction into a luminescent signal.

For another experiment, the target named is human CSNK1D (Homo sapiens (Human), UniProt P48730). As to the kind of experiment: CSNK1D Assay (ADP-Glo, 1 μM ATP). Conditions: read-out: CSNK1D IC50 [mol/l] (median). The procedure:
CSNK1 D-inhibitory activity of compounds of the present invention in presence of 1 μM adenosine-tri-phosphate (ATP) was quantified employing the CSNK1D assay as described in the following paragraphs. In essence, the enzyme activity is measured by quantification of the adenosine-di-phosphate (ADP), which is generated as a co-product of the enzyme reaction, via the “ADP-Glo™ Kinase Assay” kit from the company Promega. This detection system works as follows: In a first step the ATP not consumed in the kinase reaction is quantitatively converted to cAMP employing an adenylate cyclase (“ADP-Glo-reagent”), then the adenylate cyclase is stopped and the ADP generated in the kinase reaction converted to ATP which generates in a luciferase-based reaction a glow-luminescence signal (“Kinase Detection Reagent”). Recombinant fusion protein of N-terminal Glutathion-S-Transferase (GST) and full-length human CSNK1D, expressed by baculovirus infected insect cells and purified via Glutathion affinity chromatography, was purchased from Life Technologies (product no. PV3665) and used as enzyme. As substrate for the kinase reaction the biotinylated peptide Btn-Ahx-[…] (C-terminus in amide form) was used which can be purchased e.g. from the company Biosyntan (Berlin-Buch, Germany).
For the assay 50 nl of a 100 fold concentrated solution of the test compound in DMSO was pipetted into a white 1536-well microtiter plate (Greiner Bio-One, Frickenhausen, Germany), 2 μL of a solution of CSNK1D in aqueous assay buffer [50 mM HEPES pH 7.5, 10% (v/v) glycerol, 10 mM MgCl2, 50 mM NaCl, 1 mM dithiothreitol, 0.01% (w/v) bovine serum albumin, 0.01% (v/v) Triton X-100] were added and the mixture was incubated for 15 min at 22° C. to allow pre-binding of the test compounds to the enzyme before the start of the kinase reaction. […] The concentration of CSNK1 D was adjusted depending of the activity of the enzyme lot and was chosen appropriate to have the assay in the linear range, a typical concentration is about 0.5 ng/μL. The reaction was stopped by the addition of 2.5 μL of “ADP-Glo-reagent” (1:1.5 fold diluted with water) and the resulting mixture was incubated at 22° C. for 1 h to convert the ATP not consumed in the kinase reaction completely […]. Subsequently 2.5 μL of the “kinase detection reagent” (1.2 fold more concentrated than recommended by the producer) were added, the resulting mixture was incubated at 22° C. for 1 h and then the luminescence measured with a suitable measurement instrument (e.g. Viewlux™ from Perkin-Elmer). The amount of emitted light was taken as a measure for the amount of ADP generated and thereby for the activity of the CSNK1D.

[4] abbreviates: EGFR Wildtyp- 2 mM ATP IC50 [mol/l] (median).
Setting [5] is: read-out: EGFR Wildtyp- 2 mM ATP IC50 [mol/l] (median).

These results are taken from US12227501B2, “3-amino-2-[2-(acylamino)pyridin-4-yl]-1,5,6,7-tetrahydro-4h-pyrrolo[3,2-c]pyridin-4-one as CSNK1 inhibitors” (Bayer Aktiengesellschaft, priority 2019, dated 2025).

Where “and” joins values, the source holds several entries; their conditions need not be identical. Identical values can stand only once. Counter-ions that a name gives are not always drawn. Like-named read-outs stand apart in the source and are kept apart here.

wild-type Epidermal Growth Factor Receptor (EGFR), sequence (P00533 669-1210): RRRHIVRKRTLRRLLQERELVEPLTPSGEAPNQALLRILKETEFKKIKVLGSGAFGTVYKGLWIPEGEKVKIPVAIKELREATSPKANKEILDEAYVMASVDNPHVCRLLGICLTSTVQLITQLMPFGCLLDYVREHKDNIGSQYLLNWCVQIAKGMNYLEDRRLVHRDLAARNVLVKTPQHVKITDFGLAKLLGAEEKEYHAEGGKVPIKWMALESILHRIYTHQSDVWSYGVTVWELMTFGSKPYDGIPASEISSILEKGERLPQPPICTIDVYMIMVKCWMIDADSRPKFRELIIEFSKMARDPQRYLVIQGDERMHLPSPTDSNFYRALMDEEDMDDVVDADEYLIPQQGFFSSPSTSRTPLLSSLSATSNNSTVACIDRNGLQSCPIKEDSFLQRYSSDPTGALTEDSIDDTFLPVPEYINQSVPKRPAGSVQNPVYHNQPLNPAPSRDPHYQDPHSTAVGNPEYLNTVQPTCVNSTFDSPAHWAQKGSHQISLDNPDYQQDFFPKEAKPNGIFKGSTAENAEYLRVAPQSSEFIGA
T1 sequence (P48729 whole entry): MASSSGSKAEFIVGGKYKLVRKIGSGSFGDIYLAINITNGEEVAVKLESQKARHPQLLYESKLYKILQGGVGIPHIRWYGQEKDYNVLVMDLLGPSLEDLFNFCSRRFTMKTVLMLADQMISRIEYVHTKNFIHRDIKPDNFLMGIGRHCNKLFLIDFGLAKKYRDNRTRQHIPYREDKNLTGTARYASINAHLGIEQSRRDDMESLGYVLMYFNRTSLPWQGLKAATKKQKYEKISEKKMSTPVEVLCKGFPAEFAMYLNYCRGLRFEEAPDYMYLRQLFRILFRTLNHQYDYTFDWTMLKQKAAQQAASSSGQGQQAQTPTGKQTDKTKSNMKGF
human CSNK1D, sequence (P48730 whole entry): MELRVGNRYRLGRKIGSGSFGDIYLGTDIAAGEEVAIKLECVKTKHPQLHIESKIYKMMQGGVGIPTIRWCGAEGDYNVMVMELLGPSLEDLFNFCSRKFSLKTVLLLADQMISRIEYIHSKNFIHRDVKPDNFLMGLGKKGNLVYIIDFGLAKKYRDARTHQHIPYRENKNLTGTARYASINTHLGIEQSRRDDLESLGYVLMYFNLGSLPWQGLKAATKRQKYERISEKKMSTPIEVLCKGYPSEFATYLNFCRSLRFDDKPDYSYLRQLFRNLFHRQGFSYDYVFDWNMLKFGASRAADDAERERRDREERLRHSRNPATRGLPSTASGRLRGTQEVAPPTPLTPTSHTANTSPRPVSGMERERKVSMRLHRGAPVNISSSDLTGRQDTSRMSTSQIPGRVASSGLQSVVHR

On to `CN1CCc2[nH]c(-c3ccnc(NC(=O)C(CCN4CCOCC4)c4ccccc4)c3)c(Nc3ccccc3)c2C1=O` (single isomer, unassigned) [Example 31, N-[4-(3-anilino-5-methyl-4-oxo-4,5,6,7-tetrahydro-1H-pyrrolo[3,2-c]pyridin-2-yl)pyridin-2-yl]-4-(morpholin-4-yl)-2-phenylbutanamide], for which the IC50 was above 20000 nM in experiment [1] (setting [4]), 3.85 nM at human CSNK1A1 [2] and 249 nM at human CSNK1A1 [3].

For the molecule `CN1CCc2[nH]c(-c3ccnc(NC(=O)C(CCN4CCOCC4)c4ccccc4)c3)c(Nc3ccccc3)c2C1=O` (single isomer, unassigned) [Example 32, N-[4-(3-anilino-5-methyl-4-oxo-4,5,6,7-tetrahydro-1H-pyrrolo[3,2-c]pyridin-2-yl)pyridin-2-yl]-4-(morpholin-4-yl)-2-phenylbutanamide], the IC50 in experiment [1] (setting [5]) was above 20000 nM; at human CSNK1A1 [2], 72.2 nM; at human CSNK1A1 [3], 4560 nM.

On to `CN1CCc2[nH]c(-c3ccnc(NC(=O)C(CC(F)F)c4ccccc4)c3)c(Nc3ccccc3)c2C1=O` (single isomer, unassigned) [Example 34, N-[4-(3-anilino-5-methyl-4-oxo-4,5,6,7-tetrahydro-1H-pyrrolo[3,2-c]pyridin-2-yl)pyridin-2-yl]-4,4-difluoro-2-phenylbutanamide], for which the figures for the IC50 (in experiment [1] (setting [4]); at human CSNK1A1 [2]; at human CSNK1A1 [3]) were above 20000 nM, 2.68 nM and 16.5 nM, respectively.

Turning to `CN1CCc2[nH]c(-c3ccnc(NC(=O)C(CC(F)F)c4ccccc4)c3)c(Nc3ccccc3)c2C1=O` (single isomer, unassigned) [Example 35, N-[4-(3-anilino-5-methyl-4-oxo-4,5,6,7-tetrahydro-1H-pyrrolo[3,2-c]pyridin-2-yl)pyridin-2-yl]-4,4-difluoro-2-phenylbutanamide], the IC50 in experiment [1] (setting [4]) turned out to be 14800 nM; at human CSNK1A1 [2], 20.5 nM; on human CSNK1A1 [3], 705 nM.

Turning to `CC(C(=O)Nc1cc(-c2[nH]c3c(c2Nc2ccccc2)C(=O)NC(C)(C)C3)ccn1)c1ccc(F)cc1` (single isomer, unassigned; (+)) [Example 40, (+)-N-[4-(3-anilino-6,6-dimethyl-4-oxo-4,5,6,7-tetrahydro-1H-pyrrolo[3,2-c]pyridin-2-yl)pyridin-2-yl]-2-(4-fluorophenyl)propanamide], the figures for the IC50 at human CSNK1D, on human CSNK1A1 [2] and at human CSNK1A1 [3] were 10.5 nM, 4.59 nM and 51.7 nM, respectively.

On to `CN1C(=O)c2c([nH]c(-c3ccnc(NC(=O)C(CC(F)F)c4ccc(F)cc4)c3)c2Nc2ccccc2)CC12CCC2` (single isomer, unassigned; enantiomer 1) [Example 161, (−)-N-[4-(3′-anilino-5′-methyl-4′-oxo-1′,4′,5′,7′-tetrahydrospiro[cyclobutane-1,6′-pyrrolo[3,2-c]pyridin]-2′-yl)pyridin-2-yl]-4,4-difluoro-2-(4-fluorophenyl)butanamide (Enantiomer 1)], for which the IC50 in experiment [1] (setting [4]) was above 20000 nM; on human CSNK1D, 360 nM; at human CSNK1A1 [3] it was > 20000 nM and 19100 nM and 10600 nM and 14600 nM.

For the molecule `CN(C)CCC(C(=O)Nc1cc(-c2[nH]c3c(c2Nc2ccccc2)C(=O)N(C)CC3)ccn1)c1ccccc1` (centres unmarked) [Example 38, N-[4-(3-anilino-5-methyl-4-oxo-4,5,6,7-tetrahydro-1H-pyrrolo[3,2-c]pyridin-2-yl)pyridin-2-yl]-4-(dimethylamino)-2-phenylbutanamide], the IC50 was found to be 6690 nM in experiment [1] (setting [5]), 14.6 nM at human CSNK1A1 [2] and 1290 nM at human CSNK1A1 [3].

The molecule `Cc1ccccc1Nc1c(-c2ccnc(NC(=O)Cc3ccc(F)cc3)c2)[nH]c2c1C(=O)NC(C)(C)C2` [Example 113, N-{4-[6,6-dimethyl-3-(2-methylanilino)-4-oxo-4,5,6,7-tetrahydro-1H-pyrrolo[3,2-c]pyridin-2-yl]pyridin-2-yl}-2-(4-fluorophenyl)acetamide] showed an IC50 in experiment [1] (setting [4]) above 5710 nM.

Consider `CC1(C)Cc2[nH]c(-c3ccnc(NC(=O)Cc4ccc(F)cc4)c3)c(Nc3cccc(F)n3)c2C(=O)N1` [Example 127, 2-(4-fluorophenyl)-N-(4-{3-[(6-fluoropyridin-2-yl)amino]-6,6-dimethyl-4-oxo-4,5,6,7-tetrahydro-1H-pyrrolo[3,2-c]pyridin-2-yl}pyridin-2-yl)acetamide-1,1′,1″-phosphoryltripyrrolidine salt], for which the IC50 in experiment [1] (setting [4]) came to 16900 nM.
